Assays:
UGT1A9 = molecular target: T1, UGT1A9 (Homo sapiens, UniProt O60656); assay: Reaction phenotyping with recombinant human UGT enzymes: UGT1A9; type: in vitro ADME; conditions: rUGT1A9 0.25 mg protein/mL, 10 μmol/L, 60 minutes, n = 2
T1 construct: purchased BD Biosciences; host or cells: baculovirus-infected insect cells
T1 sequence (O60656 26-530): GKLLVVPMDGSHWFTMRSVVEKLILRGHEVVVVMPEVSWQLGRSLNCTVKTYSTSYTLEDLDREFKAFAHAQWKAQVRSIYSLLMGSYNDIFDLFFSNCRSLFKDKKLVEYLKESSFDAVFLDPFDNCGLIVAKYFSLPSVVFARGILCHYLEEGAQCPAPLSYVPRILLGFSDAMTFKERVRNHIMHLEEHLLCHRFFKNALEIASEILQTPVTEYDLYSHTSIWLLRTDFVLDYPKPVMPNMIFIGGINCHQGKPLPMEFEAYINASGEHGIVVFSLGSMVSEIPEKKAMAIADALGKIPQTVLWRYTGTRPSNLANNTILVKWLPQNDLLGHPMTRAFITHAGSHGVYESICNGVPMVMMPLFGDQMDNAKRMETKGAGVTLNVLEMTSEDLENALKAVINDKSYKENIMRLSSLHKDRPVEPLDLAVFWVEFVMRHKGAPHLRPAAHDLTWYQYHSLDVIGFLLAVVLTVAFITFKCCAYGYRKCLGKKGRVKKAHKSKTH
Protocol: Ataluren at 10 μmol/L, was incubated (n = 2) with recombinant human uridine diphosphate glucuronosyltransferase (rUGT) enzymes: rUGTs 1A1, 1A3, 1A4, 1A6, 1A7, 1A8, 1A9, 1A10, 2B4, 2B7, 2B15, and 2B17 at 0.25 mg protein/mL. Incubations were conducted in duplicate at 37°C. The incubation mixture (0.2 mL, final volume with 1% methanol) consisted of Tris‐HCl buffer (100 mmol/L, pH 7.7 at 37°C), MgCl2 (10 mmol/L), EDTA (1 mmol/L), saccharic acid 1,4‐lactone (0.1 mmol/L), and UDPGA (8 mmol/L). […] Samples were subjected to centrifugation (920 g for 10 minutes at 10°C) and the supernatant fractions were analyzed by LC‐MS/MS to quantify the formation of ataluren‐O‐1β‐acyl glucuronide and loss of ataluren. […] The ataluren acyl glucuronide formation rate after 60 minutes incubation was calculated using the amount of metabolite formed (pmol) divided by the protein amount in the incubation sample (0.05 mg) and the incubation time (60 minutes).
Quantification of ataluren loss and ataluren‐O‐1β‐acyl glucuronide formation was carried out with an LC‐MS/MS system, which consisted of two Shimadzu LC‐10ADvp pumps, a SPD10‐AVP UV/Vis detector, a Shimadzu SILHTA autosampler, a Shimadzu DGU‐14A degasser, and a Sciex API 4000 QTRAP mass spectrometer equipped with a Turbo Ionspray ionization source that operated in positive ionization mode. […]

CYP1A2 = molecular target: T2, CYP1A2 (Homo sapiens, UniProt P05177); assay: CYP inhibition in pooled human liver microsomes: CYP1A2; type: in vitro ADME; conditions: CYP1A2, HLM, estimated, concentrations up to 400 μmol/L
T2 construct: tissue XenoTech LLC, Celsis-In Vitro Technologies, or Tissue Transformation Technologies; host or cells: pooled human liver microsomes
T2 sequence (P05177 1-516): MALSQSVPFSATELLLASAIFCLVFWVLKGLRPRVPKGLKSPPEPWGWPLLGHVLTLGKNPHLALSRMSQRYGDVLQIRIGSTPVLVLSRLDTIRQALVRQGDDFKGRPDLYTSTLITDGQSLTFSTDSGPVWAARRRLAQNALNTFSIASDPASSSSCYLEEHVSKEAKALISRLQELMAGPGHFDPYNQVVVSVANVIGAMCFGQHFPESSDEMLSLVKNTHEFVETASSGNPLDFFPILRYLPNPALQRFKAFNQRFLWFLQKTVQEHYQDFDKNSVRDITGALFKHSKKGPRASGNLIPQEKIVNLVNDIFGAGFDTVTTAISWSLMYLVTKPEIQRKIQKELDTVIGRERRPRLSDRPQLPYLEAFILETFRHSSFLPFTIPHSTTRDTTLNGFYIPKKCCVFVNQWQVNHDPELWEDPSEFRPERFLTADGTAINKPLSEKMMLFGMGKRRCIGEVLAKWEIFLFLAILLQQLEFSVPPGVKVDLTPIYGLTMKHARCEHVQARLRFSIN
Protocol: The final concentration of each probe substrate was near the experimentally determined Km value for the indicated enzyme. Ataluren or prototypical CYP inhibitors (positive controls) was incubated (n = 3) with probe substrates and HLM in 100 mmol/L phosphate buffer (pH 7.4) in a total volume of approximately 0.25 mL, and the reactions were initiated by the addition of 1 mmol/L NADPH at 37°C. The reactions were carried out using previously established conditions to ensure linearity with respect to protein concentration and incubation time (Table S1). Incubations were stopped with the addition of ice‐cold acetonitrile. Metabolite formation in incubations with test compound and control inhibitors was assessed with LC‐MS/MS methods for each of the reaction products as described in Table S2. […] After 7 minutes incubation at 37°C, the reaction was stopped by the addition of ice‐cold acetonitrile, followed by membrane plate filtration. The filtrates were used for LC‐MS/MS analysis. […] IC50 values were determined by nonlinear regression with GraphPad Prism 5 using the following four‐parameter sigmoidal‐logistic IC50 equation: Fit=background+range-background/[1+I/IC50^slope]
Where, I is the inhibitor concentration, and background was set to 0 and range to 100, as percent of control values are utilized. K i was determined by nonlinear regression with GraphPad Prism 5 using best fit model.

O=C(O)c1cccc(-c2noc(-c3ccccc3F)n2)c1 [ataluren, Ataluren]
ataluren loss (UGT1A9): 32.7% | IC50 (CYP1A2): > 400 µM

Reference: PMC7083565, “In vitro metabolism, reaction phenotyping, enzyme kinetics, CYP inhibition and induction potential of ataluren” (Pharmacology Research & Perspectives, 2020)
